Measurements published in patent publication US20250109168A1, “POLYPEPTIDE AND USE THEREOF IN REGULATING BLOOD GLUCOSE LEVEL AND/OR REDUCING FAT” (Greenyn Biotechnology Co., Ltd, priority 2023, published 2025).

Tests used:
GLUT4 = test: Cell test: western blotting of GLUT4 in C2C12 mouse myoblasts; format: cell-based; details: for Expression of GLUT4, result in words: C2C12 cells, without induction by insulin, summary of Table 6; for GLUT4 (change in expression): C2C12 mouse myoblasts, final concentration 20 μL/mL, 24 hours, western blotting
Description: (§1) C2C12 mouse myoblasts were obtained and were cultured in groups for 24 hours. After that, the culture medium of each group was added with human insulin (MedChemExpress LLC), polypeptide 1 of the present invention (SEQ ID No.: 1), polypeptide 2 of the invention (SEQ ID No.: 2), polypeptide 3 of the invention (SEQ ID No.: 3), polypeptide 4 of the invention (SEQ ID No.: 4), or polypeptide 5 (whose amino acid sequence number is SEQ ID No.: 5 and which was used for the control group) such that the final concentration of the added insulin/polypeptide in the culture medium was 20 μL/mL. The cells in each group were then cultured for another 24 hours, before the culture medium of each cell group was removed. The cells were subsequently washed with a phosphate-buffered solution, added with a radioimmunoprecipitation assay (RIPA) buffer containing a phosphatase inhibitor, and kept in a refrigerator, allowing reactions to take place for 30 minutes. Following that, the cells were thawed, subjected to vibration extraction with an ultrasonic vibrator for 5 minutes, and centrifuged. The supernatant of each cell group was collected and was analyzed by the western blotting method in order to determine changes in the expression of p-IR/IR, p-Akt, GLUT4, mTOR, PPARα, and p-AMPK in each cell group.

p-AMPK = test: Cell test: western blotting of p-AMPK in C2C12 mouse myoblasts; format: cell-based; details: final concentration 20 μL/mL, 24 hours
Description: as §1

PPARα = test: Cell test: western blotting of PPARα in C2C12 mouse myoblasts; format: cell-based; details: for Expression of PPARα, result in words: C2C12 cells, without induction by insulin, summary of Table 6; for PPARα (change in expression): C2C12 mouse myoblasts, final concentration 20 μL/mL, 24 hours, western blotting
Description: as §1

p-IR/IR = test: Cell test: western blotting of p-IR/IR in C2C12 mouse myoblasts; format: cell-based; details: for Insulin receptor phosphorylation (p-IR/IR), result in words: C2C12 cells, without induction by insulin, summary of Table 6; for p-IR/IR (change in expression): C2C12 mouse myoblasts, final concentration 20 μL/mL, 24 hours, western blotting
Description: as §1

p-Akt = test: Cell test: western blotting of p-Akt in C2C12 mouse myoblasts; format: cell-based; details: for Expression of phosphorylated Akt, result in words: C2C12 cells, without induction by insulin, summary of Table 6; for p-Akt (change in expression): C2C12 mouse myoblasts, final concentration 20 μL/mL, 24 hours, western blotting
Description: as §1

mTOR = test: Cell test: western blotting of mTOR in C2C12 mouse myoblasts; format: cell-based; details: final concentration 20 μL/mL, 24 hours
Description: as §1

PGC-1α = test: Cell test: western blotting of PGC-1α in C2C12 mouse myoblasts; format: cell-based; details: for Expression of PGC-1α, result in words: C2C12 cells, without induction by insulin, summary of Table 6; for PGC-1α (change in expression): C2C12 mouse myoblasts, final concentration 20 μL/mL, 24 hours, western blotting
Description: [The source words this procedure for another target and reports this target under the same test.] as §1

insulin receptor = insulin receptor (mouse, UniProt P15208 28-1372); test: cell-based or functional assay
Sequence of insulin receptor (P15208 28-1372): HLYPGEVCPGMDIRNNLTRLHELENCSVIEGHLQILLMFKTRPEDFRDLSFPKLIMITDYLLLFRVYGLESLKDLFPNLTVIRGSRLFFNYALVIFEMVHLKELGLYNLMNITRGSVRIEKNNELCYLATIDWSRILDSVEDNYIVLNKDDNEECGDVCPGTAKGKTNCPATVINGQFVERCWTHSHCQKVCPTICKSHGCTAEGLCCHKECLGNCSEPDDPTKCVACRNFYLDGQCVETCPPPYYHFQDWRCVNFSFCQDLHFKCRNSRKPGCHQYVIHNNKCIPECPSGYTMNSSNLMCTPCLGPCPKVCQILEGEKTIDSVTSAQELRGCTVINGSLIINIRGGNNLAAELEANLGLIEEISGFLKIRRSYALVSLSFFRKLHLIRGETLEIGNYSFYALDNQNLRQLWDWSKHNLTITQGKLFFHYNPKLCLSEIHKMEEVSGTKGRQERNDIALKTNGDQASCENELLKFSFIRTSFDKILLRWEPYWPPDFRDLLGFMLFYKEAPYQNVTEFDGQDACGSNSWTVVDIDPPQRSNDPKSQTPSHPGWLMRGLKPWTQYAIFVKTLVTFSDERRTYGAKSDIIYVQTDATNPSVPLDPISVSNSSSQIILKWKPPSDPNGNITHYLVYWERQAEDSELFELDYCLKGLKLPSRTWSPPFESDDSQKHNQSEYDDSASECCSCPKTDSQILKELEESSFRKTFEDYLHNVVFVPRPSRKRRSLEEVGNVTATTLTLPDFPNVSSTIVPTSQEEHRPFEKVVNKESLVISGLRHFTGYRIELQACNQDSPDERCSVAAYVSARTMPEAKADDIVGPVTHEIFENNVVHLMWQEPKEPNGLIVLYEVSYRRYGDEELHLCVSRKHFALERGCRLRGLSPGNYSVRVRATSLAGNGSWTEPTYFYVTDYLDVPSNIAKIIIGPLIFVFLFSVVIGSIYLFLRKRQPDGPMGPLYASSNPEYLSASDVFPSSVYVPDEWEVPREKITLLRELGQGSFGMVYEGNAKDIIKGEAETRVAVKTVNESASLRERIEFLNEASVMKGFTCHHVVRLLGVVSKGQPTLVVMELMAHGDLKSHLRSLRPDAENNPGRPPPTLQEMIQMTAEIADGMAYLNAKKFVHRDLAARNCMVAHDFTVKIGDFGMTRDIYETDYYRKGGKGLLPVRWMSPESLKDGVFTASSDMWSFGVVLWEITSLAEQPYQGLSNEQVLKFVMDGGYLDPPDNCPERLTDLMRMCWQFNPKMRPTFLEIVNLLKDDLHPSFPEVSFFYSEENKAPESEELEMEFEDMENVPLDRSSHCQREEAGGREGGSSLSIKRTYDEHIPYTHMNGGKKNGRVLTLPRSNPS

Row | Molecule | Expression of GLUT4, result in words (GLUT4) | GLUT4 (change in expression) (GLUT4) | p-AMPK (change in expression) (p-AMPK) | Expression of PPARα, result in words (PPARα) | PPARα (change in expression) (PPARα) | Insulin receptor phosphorylation (p-IR/IR), result in words (p-IR/IR) | Expression of phosphorylated Akt, result in words (p-Akt) | p-Akt (change in expression) (p-Akt) | mTOR (change in expression) (mTOR) | Expression of PGC-1α, result in words (PGC-1α) | PGC-1α (change in expression) (PGC-1α) | p-IR/IR (change in expression) (p-IR/IR) | p-IR/IR (insulin receptor)
1 | INPNEQREV [polypeptide 2] | increase the expression of phosphorylated Akt and GLUT4 | +23% | +70% | enhance the expression of PGC-1α and PPARα | +62% | able to encourage insulin receptor phosphorylation | increase the expression of phosphorylated Akt | +29% | +22% | enhance the expression of PGC-1α | +0% | – | –
2 | MQIFVK [polypeptide 4] | increase the expression of GLUT4 | +156% | +91% | enhance the expression of PGC-1α and PPARα | +151% | able to encourage insulin receptor phosphorylation | failure to increase the expression of phosphorylated Akt significantly | −3% | +74% | enhance the expression of PGC-1α | +155% | – | –
3 | human insulin [reference compound] | – | +41% | +1% | – | +40% | – | – | +56% | −2% | – | +50% | 1.23 | –
4 | human insulin (MedChemExpress LLC) (from UniProt P01308 25-54; P01308 90-110) (ligand) | – | – | – | – | – | – | – | – | – | – | – | – | 1.23
5 | GGGDATRYSTGGGYS [polypeptide 1] | increase the expression of phosphorylated Akt and GLUT4 | +376% | +232% | enhance the expression of PGC-1α and PPARα | +173% | able to encourage insulin receptor phosphorylation | increase the expression of phosphorylated Akt | +196% | +136% | enhance the expression of PGC-1α | +161% | – | –
6 | VATVIQVL [polypeptide 5, reference compound] | weaker enhancing effect | +34% | +7% | weaker enhancing effect | +23% | – | failed to increase the expression of phosphorylated Akt | −42% | +0% | weaker enhancing effect | +3% | 1 | –
7 | MQIFVKTLTG [polypeptide 3] | increase the expression of phosphorylated Akt and GLUT4 | +582% | +210% | enhance the expression of PGC-1α and PPARα | +196% | able to encourage insulin receptor phosphorylation | increase the expression of phosphorylated Akt | +153% | +117% | enhance the expression of PGC-1α | +258% | – | –
8 | GGGDATRYSTGGGYS [Polypeptide 1] | – | – | – | – | – | – | – | – | – | – | – | – | 1.81
9 | MQIFVK [Polypeptide 4] | – | – | – | – | – | – | – | – | – | – | – | – | 1.97
10 | MQIFVKTLTG [Polypeptide 3] | – | – | – | – | – | – | – | – | – | – | – | – | 3.08
11 | INPNEQREV [Polypeptide 2] | – | – | – | – | – | – | – | – | – | – | – | – | 1
